“Also recorded” adds a separate entry of the source.
Assays:
[1] = test system: N-starved Arabidopsis plants; settings: nitrate addition to N-starved Arabidopsis; cited from earlier work
Arabidopsis thaliana [2] = assay: MOA1 biochemical (metabolite) profiling by LC-MS and GC-MS; settings: for Stress-related (commonly regulated) metabolites: MOA1, 20 min and 1 hr after spraying
Arabidopsis thaliana [3] = assay: MOA1 phenotypic profiling of Arabidopsis sprayed with unknown and commercial herbicides; format: in vivo
[4] = test system: Saccharomyces cerevisiae wild type strain BY4743; assay: AF1 metabolite analysis (GC-MS, LC-MS) of yeast cells treated with antifungal drugs; format: cell-based; design: Fold Change: scale not given here
[5] = test system: Saccharomyces cerevisiae wild type strain BY4743; assay: AF1 combined gene expression and metabolite data mapped to KEGG reactions and pathways; format: cell-based; settings: yeast AF1
Excerpt: In AF1, two different technologies were utilized: gene expression analysis (for examination of mRNA expression) and metabolite analysis. […] As noted previously, existing metabolic databases may be helpful in practicing the methods and systems of the present invention, but many databases include limitations that make their use in data analysis and pathway mapping less than straightforward. […] This caveat to KEGG makes it difficult to pinpoint the correct pathway when attempting to link a gene to a specific pathway. […] The pathway score indicates how meaningful the mapping is, or how likely it is to be correctly indicative of the pathway involved in the perturbation under examination. The method provides a pathway score based on perturbation levels of genes and/or compounds and the information content of each gene and/or compound in the pathway, i.e., a pathway score indicates the extent to which other pathways are mapped to a gene/compound. For example, imagine that two genes are perturbed in a particular experiment. One gene maps to only one pathway, giving a high degree of probability that the perturbed pathway is the one identified in the mapping. The second gene maps to three pathways. In the later example, there is only one-third the probability that the pathway identified in the mapping is the one perturbed. The present invention provides a method for calculating the pathway scores, so that more weight is given to a score of a gene or compound that maps to only one pathway than to a score of a gene or compound that maps to multiple pathways. […] Where n=the total number of genes in the pathway; ipath—count=the number of pathways containing a gene; and j=the number of genes in the pathway that are perturbed. Another factor to be considered when weighting a pathway score is the degree of perturbation. Degree of perturbation can be calculated, for example, based on a number of standard deviations from a norm, and included in an equation such as the one shown above, so that not only the number of pathways is taken into account, but also accounts for the amount of gene transcript or compound present as compared to a control. Compounds were also linked to pathways using the KEGG database. KEGG links 676 compounds measured in AF1 to a total of 92 pathways. Of the 676 compounds under consideration, 77 were detected in the AF1 samples. […] The multiple mapping feature of KEGG makes it difficult to pinpoint the correct pathway when trying to link a compound to a specific pathway. […] A pathway score calculation is applied to the compounds to account for both information content (number of pathways a compound maps to) and perturbation level. The data were then combined to determine the number of reactions showing an enzyme and at least one compound perturbed, and to determine the number of pathways having at least one enzyme and one perturbed compound perturbed. The results of the analysis are represented in Tables 16 and 17, and were difficult to interpret, illustrating that the ability to draw conclusions from compound mapping to pathways is limited when absent additional data.

[6] = test system: Arabidopsis thaliana plants; assay: SOA1 phenotypic analysis of herbicide-treated Arabidopsis plants (MIC, Tmic, leaf traits); format: in vivo; settings: for Characteristic symptoms (phenotype): herbicide treated Arabidopsis; for Dev. leafCurling / Dev. leafTwisting / Dev. matureLeafAnthocyanins / Dev. matureLeafChlorosis / Dev. matureLeafNecrosis / Dev. newLeafAnthocyanins / Dev. newLeafChlorosis / Dev. newLeafNecrosis / Dev. pointedLeaves: numeric value standardized to mock treated; for Dev. leafWidth: numeric value standardized to the average response for the mock treated tissues

O=[N+]([O-])O [Nitrate, nitrate]
Nitrate Regulation of Glutamate synthetase [1]: ↑ | Nitrate Regulation of Glutamine synthetase (2) [1]: ↑ | Nitrate Regulation of MADs Box (2) [1]: ↓ | Nitrate Regulation of MYB transcription factor [1]: ↑ | Nitrate Regulation of Malate Dehydrogenase [1]: ↑ | Nitrate Regulation of Nitrate transporter [1]: ↑ | Nitrate Regulation of Phosphate transporter [1]: ↑ | Nitrate Regulation of Transaldolase [1]: ↑ | Nitrate Regulation of Transketolase [1]: ↑

CCSC(=O)N(CC(C)C)CC(C)C [Butylate]
Stress-related (commonly regulated) metabolites (Arabidopsis thaliana [2]): neither butylate nor chlorpropham treatment resulted in many changes | Herbicidal phenotype (Arabidopsis thaliana [3]): neither showed a strong herbicidal phenotype

CC[C@@H]([C@H](C)O)n1ncn(-c2ccc(N3CCN(c4ccc(OC[C@@H]5CO[C@@](Cn6cncn6)(c6ccc(F)cc6F)C5)cc4)CC3)cc2)c1=O [Posaconazole]
Fold Change ([4]; metabolite NacetylD-glucosamine, platform nLC): 0 | Fold Change ([4]; metabolite NacetylD-glucosamine, platform pLC): 0 | Fold Change ([4]; metabolite NacetylL-glutamate, platform pLC): 0 | Fold Change ([4]; metabolite NacetylL-ornithine, platform nLC): 0 | Fold Change ([4]; metabolite niacinamide, platform pLC): 0 | Fold Change ([4]; metabolite nopaline, platform pLC): 0 | Fold Change ([4]; metabolite ornithine3, platform GC): 0.041 | Fold Change ([4]; metabolite orotic acid, platform nLC): 0 | Fold Change ([4]; metabolite phenylpyruvic acid, platform nLC): 0 | Fold Change ([4]; metabolite phosphoenolpyruvate, platform nLC): 0 | Fold Change ([4]; metabolite phosphoenolpyruvate, platform pLC): 0 | Fold Change ([4]; metabolite pinitol, platform nLC): 0 | Fold Change ([4]; metabolite porphobilinogen, platform nLC): 0 | Fold Change ([4]; metabolite progesterone, platform pLC): 0 | Fold Change ([4]; metabolite retinoic acid, platform nLC): 0 | Fold Change ([4]; metabolite riboflavin, platform pLC): 0 | Fold Change ([4]; metabolite salicylic/HObenzoic, platform nLC): 0 | Fold Change ([4]; metabolite shikimic acid, platform nLC): 0 | Fold Change ([4]; metabolite sinapinic acid, platform nLC): 0 | Fold Change ([4]; metabolite sugar-phosphate, platform pLC): 0 | Fold Change ([4]; metabolite thiamine, platform pLC): 0 | Fold Change ([4]; metabolite thymine, platform nLC): 0 | Fold Change ([4]; metabolite thymine, platform pLC): 0 | Fold Change ([4]; metabolite tryptophan, platform pLC): 0 | Fold Change ([4]; metabolite uric acid, platform pLC): 0 | Fold Change ([4]; metabolite urocanic acid, platform nLC): 0 | Fold Change ([4]; metabolite urocanic acid, platform pLC): 0 | Fold Change ([4]; metabolite xanthosine (diH2O), platform pLC): 0 | Fold Change ([4]; metabolite xanthosine-DiH2O, platform nLC): 0 | Fold Change ([4]; metabolite zeatin, platform nLC): 0 | Fold Change ([4]; metabolite zeatin, platform pLC): 0 | # Reactions (title: Number Of Pathways Having at Least One Enzyme and One Compound Perturbed) [5]: 3

CS(=O)(=O)c1cc(C(F)(F)F)ccc1C(=O)c1cnoc1C1CC1 [Isoxaflutole]
Alpha-tocopherol levels (Arabidopsis thaliana [2]; relative to control, early time points): not significantly changed relative to the control | Tyrosine and phenylalanine levels (Arabidopsis thaliana [2]; relative to control, early time points, 1 hr): up-regulated relative to the control; also recorded: began to accumulate relative to the control after one hour

Nc1nc[nH]n1 [Amitrole]
Hierarchical cluster analysis of the eleven phenotypic characteristics / phenotype (Arabidopsis thaliana [3]; Ward's method): exhibited chlorosis and not true bleaching | Dev. tMic [6]: 2 | Characteristic symptoms (phenotype) [6]: leaf bleaching and leaf enlargement | Dev. leafCurling [6]: −1 | Dev. leafTwisting [6]: 0 | Dev. matureLeafAnthocyanins [6]: 0 | Dev. matureLeafChlorosis [6]: 3 | Dev. matureLeafNecrosis [6]: 0 | Dev. newLeafAnthocyanins [6]: 0 | Dev. newLeafChlorosis [6]: 4 | Dev. newLeafNecrosis [6]: 0 | Dev. pointedLeaves [6]: 0 | Dev. leafWidth [6]: 2

CNc1cnn(-c2cccc(C(F)(F)F)c2)c(=O)c1Cl [Norfluazon, norflurazon]
Stress-related (commonly regulated) metabolites (Arabidopsis thaliana [2]): Only a few, if any, stress-related metabolites were observed

CC(C)OC(=O)Nc1cccc(Cl)c1 [Chloropropham]
Stress-related (commonly regulated) metabolites (Arabidopsis thaliana [2]): neither butylate nor chlorpropham treatment resulted in many changes | Herbicidal phenotype (Arabidopsis thaliana [3]): neither showed a strong herbicidal phenotype

OC(Cn1cncn1)(Cn1cncn1)c1ccc(F)cc1F [Fluconazole]
# Reactions (title: Number Of Pathways Having at Least One Enzyme and One Compound Perturbed) [5]: 15

CC(C)C1(C)N=C(c2ncccc2C(=O)O)NC1=O (stereo not shown) [Imazapyr]
Stress-related (commonly regulated) metabolites (Arabidopsis thaliana [2]): Only a few, if any, stress-related metabolites were observed | Dev. tMic [6]: 2 | Characteristic symptoms (phenotype) [6]: anthocyanin accumulation in the older leaves accompanied by chlorosis of the newly emerging leaves | Dev. leafCurling [6]: 0 | Dev. leafTwisting [6]: 0 | Dev. matureLeafAnthocyanins [6]: 2 | Dev. matureLeafChlorosis [6]: 0 | Dev. matureLeafNecrosis [6]: 0 | Dev. newLeafAnthocyanins [6]: 0 | Dev. newLeafChlorosis [6]: 2 | Dev. newLeafNecrosis [6]: 0 | Dev. pointedLeaves [6]: 0 | Dev. leafWidth [6]: 0

CC(=O)N1CCN(c2ccc(OCC3COC(Cn4ccnc4)(c4ccc(Cl)cc4Cl)O3)cc2)CC1 (stereo not shown) [Ketoconazole]
# Compounds perturbed by treatment ([4]; P < 0.1, yeast, 2x MIC, two hours): 15 | # Reactions (title: Number Of Pathways Having at Least One Enzyme and One Compound Perturbed) [5]: 24

COc1c(Cl)ccc(Cl)c1C(=O)O [Dicamba]
Dev. tMic [6]: 2 | Dev. leafCurling [6]: 2 | Dev. leafTwisting [6]: 2 | Dev. matureLeafAnthocyanins [6]: 0 | Dev. matureLeafChlorosis [6]: 2 | Dev. matureLeafNecrosis [6]: 0 | Dev. newLeafAnthocyanins [6]: 0 | Dev. newLeafChlorosis [6]: 0 | Dev. newLeafNecrosis [6]: 0 | Dev. pointedLeaves [6]: 0 | Dev. leafWidth [6]: −2

CSc1nnc(C(C)(C)C)c(=O)n1N [Metribuzin]
Dev. tMic [6]: 1 | Characteristic symptoms (phenotype) [6]: rapid and widespread leaf necrosis | Dev. leafCurling [6]: 1 | Dev. leafTwisting [6]: 0 | Dev. matureLeafAnthocyanins [6]: 0 | Dev. matureLeafChlorosis [6]: 2 | Dev. matureLeafNecrosis [6]: 4 | Dev. newLeafAnthocyanins [6]: 0 | Dev. newLeafChlorosis [6]: 2 | Dev. newLeafNecrosis [6]: 4 | Dev. pointedLeaves [6]: 1 | Dev. leafWidth [6]: −2

COC(=O)c1cc(Oc2ccc(Cl)cc2Cl)ccc1[N+](=O)[O-] [Bifenox]
Dev. tMic [6]: 1 | Characteristic symptoms (phenotype) [6]: Necrotic leaf flecks | Dev. leafCurling [6]: 1 | Dev. leafTwisting [6]: 0 | Dev. matureLeafAnthocyanins [6]: 0 | Dev. matureLeafChlorosis [6]: 0 | Dev. matureLeafNecrosis [6]: 1 | Dev. newLeafAnthocyanins [6]: 0 | Dev. newLeafChlorosis [6]: 0 | Dev. newLeafNecrosis [6]: 3 | Dev. pointedLeaves [6]: 0 | Dev. leafWidth [6]: 0

From US20040019430A1, “Methods and systems for analyzing complex biological systems” (priority 2001, published 2004)
